Results from the NIST ThermoML archive (doi:10.1021/je900124n).
Several values for one entry are separate records, joined by “and”; a condition that tells them apart may be missing. Equal values may be shown once. Numbers after ± are expanded uncertainties.

Settings: Fluid (supercritical or subcritical phases), Buoyancy - hydrostatic balance with magnetic suspension - two sinkers

## CCC [propane]
340 K, 34960 kPa
  mass density: 514.104 ± 0.062 kg/m3
340 K, 34961 kPa
  mass density: 514.106 ± 0.062 kg/m3
340 K, 34962 kPa
  mass density: 514.105 ± 0.062 kg/m3
345 K, 2494.9 kPa
  mass density: 58.0748 ± 0.036 kg/m3 and 58.0791 ± 0.036 kg/m3 and 58.0771 ± 0.036 kg/m3
345 K, 2495 kPa
  mass density: 58.0845 ± 0.036 kg/m3 and 58.0787 ± 0.036 kg/m3
350 K, 1942.1 kPa
  mass density: 37.8566 ± 0.044 kg/m3 and 37.8552 ± 0.044 kg/m3
350 K, 1942.5 kPa
  mass density: 37.8654 ± 0.044 kg/m3 and 37.8643 ± 0.044 kg/m3
350 K, 1942.6 kPa
  mass density: 37.8656 ± 0.044 kg/m3
350 K, 2573.5 kPa
  mass density: 58.0372 ± 0.049 kg/m3 and 58.0366 ± 0.049 kg/m3
350 K, 2573.6 kPa
  mass density: 58.041 ± 0.049 kg/m3 and 58.0413 ± 0.049 kg/m3 and 58.0386 ± 0.049 kg/m3
350 K, 2844.7 kPa
  mass density: 70.6094 ± 0.53 kg/m3
350 K, 2844.9 kPa
  mass density: 70.6242 ± 0.53 kg/m3
350 K, 2845 kPa
  mass density: 70.6246 ± 0.53 kg/m3
350 K, 2845.1 kPa
  mass density: 70.6278 ± 0.53 kg/m3 and 70.6365 ± 0.53 kg/m3
350 K, 2845.2 kPa
  mass density: 70.6334 ± 0.53 kg/m3
350 K, 2845.3 kPa
  mass density: 70.6504 ± 0.53 kg/m3 and 70.6463 ± 0.53 kg/m3
350 K, 3505.9 kPa
  mass density: 392.661 ± 0.54 kg/m3
350 K, 3506 kPa
  mass density: 392.666 ± 0.54 kg/m3
350 K, 3506.2 kPa
  mass density: 392.664 ± 0.54 kg/m3
350 K, 3506.3 kPa
  mass density: 392.667 ± 0.54 kg/m3
350 K, 3506.4 kPa
  mass density: 392.663 ± 0.54 kg/m3 and 392.666 ± 0.54 kg/m3
350 K, 3506.5 kPa
  mass density: 392.666 ± 0.54 kg/m3
350 K, 12070 kPa
  mass density: 449.428 ± 0.055 kg/m3 [middle of 6 runs]
350 K, 12071 kPa
  mass density: 449.434 ± 0.055 kg/m3 and 449.429 ± 0.055 kg/m3
350 K, 24455 kPa
  mass density: 484.992 ± 0.059 kg/m3 and 484.989 ± 0.059 kg/m3
350 K, 24456 kPa
  mass density: 484.992 ± 0.059 kg/m3
355 K, 2650.7 kPa
  mass density: 57.9954 ± 0.061 kg/m3 [middle of 4 runs]
355 K, 3003.3 kPa
  mass density: 73.4591 ± 0.061 kg/m3 [middle of 6 runs]
355.01 K, 3003.3 kPa
  mass density: 73.4598 ± 0.061 kg/m3
359 K, 3436 kPa
  mass density: 96.2198 ± 0.073 kg/m3
359 K, 3436.4 kPa
  mass density: 96.2687 ± 0.073 kg/m3 and 96.2618 ± 0.073 kg/m3 and 96.2668 ± 0.073 kg/m3
359 K, 3436.5 kPa
  mass density: 96.2652 ± 0.073 kg/m3
359.99 K, 15760 kPa
  mass density: 448.817 ± 0.055 kg/m3
359.99 K, 15761 kPa
  mass density: 448.823 ± 0.055 kg/m3
360 K, 303.73 kPa
  mass density: 4.597 ± 0.0029 kg/m3 and 4.5969 ± 0.0029 kg/m3
360 K, 303.74 kPa
  mass density: 4.597 ± 0.0029 kg/m3 and 4.5971 ± 0.0029 kg/m3
360 K, 539.35 kPa
  mass density: 8.3504 ± 0.0033 kg/m3
360 K, 539.36 kPa
  mass density: 8.3506 ± 0.0033 kg/m3 and 8.3504 ± 0.0033 kg/m3 and 8.3503 ± 0.0033 kg/m3
360 K, 901.24 kPa
  mass density: 14.4832 ± 0.0041 kg/m3 and 14.4833 ± 0.0041 kg/m3
360 K, 901.25 kPa
  mass density: 14.4835 ± 0.0041 kg/m3 and 14.4836 ± 0.0041 kg/m3
360 K, 1361.2 kPa
  mass density: 23.0769 ± 0.029 kg/m3 and 23.078 ± 0.029 kg/m3
360 K, 1361.3 kPa
  mass density: 23.0792 ± 0.029 kg/m3
360 K, 1361.4 kPa
  mass density: 23.0819 ± 0.029 kg/m3 and 23.0827 ± 0.029 kg/m3
360 K, 2033.2 kPa
  mass density: 37.8651 ± 0.036 kg/m3
360 K, 2033.3 kPa
  mass density: 37.8677 ± 0.036 kg/m3
360 K, 2033.4 kPa
  mass density: 37.8707 ± 0.036 kg/m3
360 K, 2033.5 kPa
  mass density: 37.8723 ± 0.036 kg/m3 and 37.8724 ± 0.036 kg/m3
360 K, 2725.4 kPa
  mass density: 57.912 ± 0.045 kg/m3
360 K, 2725.5 kPa
  mass density: 57.9157 ± 0.045 kg/m3
360 K, 2725.6 kPa
  mass density: 57.9165 ± 0.045 kg/m3
360 K, 3108.3 kPa
  mass density: 73.4362 ± 0.073 kg/m3 [middle of 6 runs]
360 K, 3108.4 kPa
  mass density: 73.4363 ± 0.073 kg/m3
360 K, 3467.9 kPa
  mass density: 96.3808 ± 0.61 kg/m3 and 96.381 ± 0.61 kg/m3
360 K, 3468 kPa
  mass density: 96.3801 ± 0.61 kg/m3 and 96.3793 ± 0.61 kg/m3 and 96.3804 ± 0.61 kg/m3
360 K, 3730.9 kPa
  mass density: 352.636 ± 0.21 kg/m3 and 352.637 ± 0.21 kg/m3
360 K, 3731 kPa
  mass density: 352.635 ± 0.21 kg/m3
360 K, 3731.1 kPa
  mass density: 352.636 ± 0.21 kg/m3
360 K, 5948.1 kPa
  mass density: 392.145 ± 0.051 kg/m3
360 K, 5948.8 kPa
  mass density: 392.137 ± 0.051 kg/m3
360 K, 5949.1 kPa
  mass density: 392.137 ± 0.051 kg/m3
360 K, 5949.4 kPa
  mass density: 392.137 ± 0.051 kg/m3 and 392.14 ± 0.051 kg/m3 and 392.139 ± 0.051 kg/m3
360 K, 5949.5 kPa
  mass density: 392.138 ± 0.051 kg/m3
360 K, 5949.7 kPa
  mass density: 392.139 ± 0.051 kg/m3
360 K, 7930.9 kPa
  mass density: 409.823 ± 0.051 kg/m3
360 K, 7931 kPa
  mass density: 409.821 ± 0.051 kg/m3
360 K, 7931.2 kPa
  mass density: 409.824 ± 0.051 kg/m3
360 K, 7931.3 kPa
  mass density: 409.824 ± 0.051 kg/m3
360 K, 11923 kPa
  mass density: 433.101 ± 0.053 kg/m3 [middle of 5 runs]
360 K, 15761 kPa
  mass density: 448.822 ± 0.055 kg/m3 and 448.82 ± 0.055 kg/m3 and 448.823 ± 0.055 kg/m3
360 K, 15762 kPa
  mass density: 448.821 ± 0.055 kg/m3 and 448.822 ± 0.055 kg/m3
360 K, 16074 kPa
  mass density: 449.912 ± 0.055 kg/m3
360 K, 16075 kPa
  mass density: 449.912 ± 0.055 kg/m3 and 449.911 ± 0.055 kg/m3
360 K, 19910 kPa
  mass density: 462.101 ± 0.056 kg/m3 and 462.102 ± 0.056 kg/m3
360 K, 23890 kPa
  mass density: 472.673 ± 0.057 kg/m3 and 472.674 ± 0.057 kg/m3 and 472.672 ± 0.057 kg/m3
360 K, 23891 kPa
  mass density: 472.674 ± 0.057 kg/m3
360 K, 30126 kPa
  mass density: 486.462 ± 0.059 kg/m3
360 K, 30127 kPa
  mass density: 486.462 ± 0.059 kg/m3
360 K, 35259 kPa
  mass density: 496.072 ± 0.06 kg/m3
360 K, 35260 kPa
  mass density: 496.073 ± 0.06 kg/m3 and 496.072 ± 0.06 kg/m3
360 K, 35262 kPa
  mass density: 496.074 ± 0.06 kg/m3
360.01 K, 901.24 kPa
  mass density: 14.4833 ± 0.0041 kg/m3
360.01 K, 3108.3 kPa
  mass density: 73.4355 ± 0.073 kg/m3
365 K, 3675.6 kPa
  mass density: 100.804 ± 0.63 kg/m3 and 100.799 ± 0.63 kg/m3 and 100.803 ± 0.63 kg/m3
365 K, 3675.7 kPa
  mass density: 100.805 ± 0.63 kg/m3
365 K, 4200.9 kPa
  mass density: 337.532 ± 0.5 kg/m3 and 337.539 ± 0.5 kg/m3 and 337.537 ± 0.5 kg/m3
365 K, 4201.1 kPa
  mass density: 337.536 ± 0.5 kg/m3
365 K, 4201.2 kPa
  mass density: 337.534 ± 0.5 kg/m3
365 K, 4201.3 kPa
  mass density: 337.537 ± 0.5 kg/m3 and 337.54 ± 0.5 kg/m3
365 K, 4201.5 kPa
  mass density: 337.541 ± 0.5 kg/m3
369 K, 4143.7 kPa
  mass density: 146.446 ± 2 kg/m3 [middle of 6 runs]
369 K, 4143.8 kPa
  mass density: 146.438 ± 2 kg/m3 and 146.437 ± 2 kg/m3
369 K, 4197.8 kPa
  mass density: 281.2 ± 2.8 kg/m3 and 281.206 ± 2.8 kg/m3
369 K, 4197.9 kPa
  mass density: 281.145 ± 2.8 kg/m3
369 K, 4198 kPa
  mass density: 281.222 ± 2.8 kg/m3 [middle of 4 runs]
369 K, 4198.1 kPa
  mass density: 281.241 ± 2.8 kg/m3
369.82 K, 4245.5 kPa
  mass density: 199.588 ± 0.91 kg/m3 and 199.89 ± 0.91 kg/m3 and 199.647 ± 0.91 kg/m3
369.82 K, 4245.6 kPa
  mass density: 199.834 ± 0.91 kg/m3
369.82 K, 4246.6 kPa
  mass density: 245.595 ± 0.86 kg/m3
369.82 K, 4985.6 kPa
  mass density: 337.371 ± 0.069 kg/m3
369.82 K, 19374 kPa
  mass density: 448.259 ± 0.055 kg/m3
369.82 K, 19375 kPa
  mass density: 448.259 ± 0.055 kg/m3 [middle of 7 runs]
369.83 K, 3309.2 kPa
  mass density: 73.3627 ± 0.064 kg/m3
369.83 K, 3309.3 kPa
  mass density: 73.3633 ± 0.064 kg/m3 and 73.3643 ± 0.064 kg/m3 and 73.3637 ± 0.064 kg/m3
369.83 K, 3309.4 kPa
  mass density: 73.3693 ± 0.064 kg/m3 [middle of 4 runs]
369.83 K, 4186.1 kPa
  mass density: 146.569 ± 0.39 kg/m3
369.83 K, 4186.2 kPa
  mass density: 146.57 ± 0.39 kg/m3 [middle of 6 runs]
369.83 K, 4186.3 kPa
  mass density: 146.572 ± 0.39 kg/m3
369.83 K, 4245.5 kPa
  mass density: 199.889 ± 0.91 kg/m3
369.83 K, 4245.6 kPa
  mass density: 200.17 ± 0.91 kg/m3 and 199.849 ± 0.91 kg/m3 and 199.989 ± 0.91 kg/m3
369.83 K, 4246.6 kPa
  mass density: 245.029 ± 0.86 kg/m3 and 245.142 ± 0.86 kg/m3
369.83 K, 4246.7 kPa
  mass density: 245.511 ± 0.86 kg/m3 and 245.436 ± 0.86 kg/m3
369.83 K, 4246.8 kPa
  mass density: 245.25 ± 0.86 kg/m3 and 245.225 ± 0.86 kg/m3
369.83 K, 4246.9 kPa
  mass density: 245.368 ± 0.86 kg/m3
369.83 K, 4284.4 kPa
  mass density: 281.216 ± 0.94 kg/m3
369.83 K, 4284.5 kPa
  mass density: 281.229 ± 0.94 kg/m3 and 281.217 ± 0.94 kg/m3
